{"source": "patent US8318801B2", "about": "“Cinnamic compounds and derivatives therefrom for the inhibition of histone deacetylase” (Naturewise Biotech & Medicals Corporation, priority 2009, dated 2012)", "key": {"tumor cell lines": {"test_system": "tumor cell lines", "conditions": "cited from earlier work"}, "[1]": {"test_system": "human breast cancer MDA-MB-231 cells", "test": "Inhibition of cancer cell growth and change of morphology", "assay_type": "cell-based", "conditions": "for inhibition of MDA-MB-231 cells: MDA-MB-231 cells (FIG. 9); for change of cell morphology / inhibition of cell growth: MDA-MB-231 cells; for change of cell morphology: 72 hours (FIG. 6(a)); for inhibition of cell growth: various concentrations, 72 hrs (FIG. 6(a))", "method": "Their results were counted by a trypan blue exclusion assay (see FIG. 9(f)).\n(§1) Five cancer cell lines, Rat C6 giloma cells, Human breast cancer MCF-7 cells, Human glioma Hs683 cells, Human glioblastoma 05-MG cells, and Human lung cancer A549 cells, were cultured in Dulbecco's modified Eagle's medium (DMEM; Gibco) containing 10% fetal bovine serum (FBS) and 1% penicillin/streptomycin, and were kept at 37° C. in a humidified atmosphere of 95% air and 5% CO2. Human breast cancer. MDA-MB-231 cells were cultured in L-15 medium (Gibco) containing 10% fetal bovine serum (FBS), 1% penicillin/streptomycin, and 2 mM glutamine, and were maintained at 37° C. in a humidified atmosphere of 95% air and 0% CO2. For these experiments, the cells were seeded in 6-well plates or a 60-mm dish. After 24 hours, the cells were treated with different concentrations of the various compounds. […] Human glioblastoma 05-MG cells were treated with NBM-C-BCX-OS01 (1.0, 2.0, 4.0 μg/mL) and NBM-C-BMX-OS01 (1.0, 2.0, 4.0 μg/mL) for 72 hours (see FIG. 5(e)). […] The results were counted by a trypan blue exclusion assay (see FIG. 6(b))."}, "Human glioma Hs683 cells": {"test_system": "Human glioma Hs683 cells", "test": "Inhibition of cancer cell growth", "assay_type": "cell-based", "conditions": "Hs683 cells, 1.0, 2.0 and 4.0 μg/mL, 72 hours (FIG. 8)", "method": "Their results were counted by a trypan blue exclusion assay (see FIG. 8(e)).\nas §1"}, "[2]": {"test_system": "Human lung cancer A549 cells", "test": "Cell cycle analysis by flow cytometry (propidium iodide)", "assay_type": "cell-based", "conditions": "A549 cells (FIG. 10(a), (b))", "method": "Human lung cancer A549 cells, Human glioma Hs683 cells and Human glioblastoma 05-MG cells were seeded 1×10^6 cells in a 100-mm dish. After 24 hours of incubation in DMEM+10% BSA, Human lung cancer A549 cells were treated with NBM-HB-OS01 (2.5, 5.0, 7.5, 10.0 μg/mL) for 24 hours and were treated with NBM-C-BCX-OS01 (2.5, 5.0, 7.5 μg/mL) and NBM-C-BMX-OS01 (2.5, 5, 7.5 μg/mL) for 72 hours. Human glioblastoma 05-MG cells were treated with NBM-C-BCX-OS01 (1.0, 2.0, 4.0 μg/mL) and NBM-C-BMX-OS01 (1.0, 2.0, 4.0 μg/mL) for 72 hours. Human glioma Hs683 cells were treated with NBM-C-BCX-OS01 (1.0, 2.0, 4.0 μg/mL). For cell cycle analysis, cells were fixed in 80% ethanol for 1 hour (or overnight) at −20° C. and then incubated with 2 μg/mL RNase A for 30 minutes at 37° C. Cells were stained with propidium iodide ([…] PI) in PBS and analyzed using a Becton Dickinson flow cytometer, BD FACScan and CellQuest acquisition and analysis programs. […] Human glioma Hs683 cells were treated with NBM-C-BCX-OS01 (1.0, 2.0, 4.0 μg/mL) for 72 hours."}, "[3]": {"test_system": "Human breast cancer MCF-7 cells", "test": "Cell cycle analysis by flow cytometry", "assay_type": "cell-based", "conditions": "MCF-7 cells (FIG. 10(c) to (e))"}, "Rat C6 glioma cells": {"test_system": "Rat C6 glioma cells", "test": "Inhibition of cancer cell growth and change of morphology", "assay_type": "cell-based", "conditions": "Rat C6 glioma cells", "method": "(§2) Three cancer cell lines, Rat C6 giloma cells, Human breast cancer MCF-7 cells, and Human lung cancer A549 cells, were cultured in Dulbecco's modified Eagle's medium (DMEM; Gibco) containing 10% fetal bovine serum (FBS) and 1% penicillin/streptomycin. All three cell lines were maintained at 37° C. in a humidified atmosphere of 95% air and 5% CO2. For the experiments, the cells were seeded in 6-well plates. After 24 hours, the cells were treated with different concentrations of the various compounds.\nas §1"}, "[4]": {"test_system": "acetyl-Histone H3, acetyl-Histone H4, acetyl-tubulin, p21, CTPS, Gelsolin, Hsp90, acetyl-Hsp90 in Human glioma Hs683 cells", "test": "Immunoblotting of histones and HDAC associated proteins", "assay_type": "cell-based", "conditions": "Hs683 cells, 1.0, 2.0, 4.0 μg/mL", "method": "Human glioma Hs683 cells were seeded at 5×10^5 cells in a 60-mm dish or 1×10^6 cells in a 100-mm dish. After 24 hours, Human glioma Hs683 cells were treated with different doses of NBM-C-BCX-OS01, NBM-C-BMX-OS01 (1.0, 2.0, 4.0 μg/mL), and vorinostat (SAHA, 5 μM) for 72 hours. Lysates of Hs683 cells were prepared for the immunoblotting of acetyl-Histone H3 (Cell Signaling Technology, Inc.), acetyl-Histone H4 (Upstate), acetyl-tubulin (Sigma Chemical Co.), p21 (BD Pharmingen Technology, Inc.), CTPS (ABNOVA TAIWAN Corporation), Gelsolin (Sigma Chemical Co.), Hsp90 (Cell Signaling Technology, Inc.), acetyl-Hsp90 (ROCKLAND, Inc.) and actin (Sigma Chemical Co.). Proteins were detected by chemiluminescence (ECL, Amersham). […] SAHA was used as a positive control and β-actin as an internal control (see FIG. 7(b))."}, "[5]": {"test_system": "Human glioblastoma 05-MG cells", "test": "Inhibition of cancer cell growth", "assay_type": "cell-based", "conditions": "05-MG cells, 1.0, 2.0, 4.0 μg/mL, 72 hrs (FIG. 5(e))", "method": "as §1"}, "[6]": {"test_system": "Human lung cancer A549 cells", "test": "Inhibition of cancer cell growth", "assay_type": "cell-based", "conditions": "72 hrs, NBM-C-BX-OS01 7.5, others 2.5, 5.0, 7.5 μg/mL (FIG. 5(b))", "method": "as §2, §1"}}, "note": "“Also recorded” adds a separate entry of the source.", "data": [{"smiles": "Cc1[nH]c2ccccc2c1CCNCc1ccc(/C=C/C(=O)NO)cc1", "note": "[LBH589]", "values": [{"measurement": "growth inhibition and regression by triggering apoptosis", "setting": "tumor cell lines", "value": "induces growth inhibition and regression"}]}, {"smiles": "COc1ccc(/C=C\\C(=O)NO)c(OCc2ccc(Br)cc2)c1CC=C(C)C", "note": "[NBM-C-BBX-OS01, (Z)-2-(4-Bromobenzoxy)-3-prenyl-4-methoxy-N-hydroxycinamide]", "values": [{"measurement": "inhibition of MDA-MB-231 cells", "setting": "[1]", "value": "inhibition of human breast cancer MDA-MB-231 cells"}, {"measurement": "inhibition of cell growth", "setting": "Human glioma Hs683 cells", "value": "inhibition of cell growth"}, {"measurement": "cell cycle arrest phase", "setting": "[2]", "value": "arrested the human lung cancer A549 cells on the S and G2/M phases"}, {"measurement": "cell cycle arrest phase", "setting": "[3]", "value": "arrested the human breast cancer MCF-7 cells on the S and G2/M phases"}]}, {"smiles": "COc1ccc(/C=C/C(=O)Nc2ccccc2N)c(OCc2ccc(Cl)cc2)c1CC=C(C)C", "note": "[NBM-C-BCA-OS01, (E)-2-(4-Chlorobenzoxy)-3-prenyl-4-methoxy-N-(2-aminophenyl) cinamide]", "values": [{"measurement": "inhibition of cell growth", "setting": "Rat C6 glioma cells; 7.5 μg/mL, 48 hrs (FIG. 4)", "value": "inhibited the Rat C6 glioma cell growth"}, {"measurement": "inhibition of cell growth", "setting": "Rat C6 glioma cells; 7.5 μg/mL, 48 hrs (FIG. 4), listed as NBM-C-BA-OS01 (17d)", "value": "inhibited the Rat C6 glioma cells growth"}]}, {"smiles": "COc1ccc(/C=C\\C(=O)NO)c(OCc2ccc(F)cc2)c1CC=C(C)C", "note": "[NBM-C-BFX-OS01, (Z)-2-(4-Fluorobenzoxy)-3-prenyl-4-methoxy-N-hydroxycinamide]", "values": [{"measurement": "change of cell morphology", "setting": "[1]", "value": "changed the morphology of the cells"}, {"measurement": "inhibition of cell growth", "setting": "[1]", "value": "inhibition of the cell growth of human breast cancer MDA-MB-231 cells was observed; also recorded: inhibited the growth"}]}, {"smiles": "COc1ccc(COc2c(/C=C/C(=O)Nc3ccccc3N)ccc(OC)c2CC=C(C)C)cc1", "note": "[NBM-C-BMA-OS01, (E)-2-(4-Methoxyhenzoxy)-3-prenyl-4-methoxy-N-(2-aminophenyl) cinamide]", "values": [{"measurement": "inhibition of cell growth", "setting": "Rat C6 glioma cells; 7.5 μg/mL, 48 hrs (FIG. 4)", "value": "inhibited the Rat C6 glioma cell growth"}]}, {"smiles": "COc1ccc(COc2c(/C=C\\C(=O)NO)ccc(OC)c2CC=C(C)C)cc1", "note": "[NBM-C-BMX-OS01, (Z)-2-(4-Methoxyhenzoxy)-3-prenyl-4-methoxy-N-hydroxycinamide]", "values": [{"measurement": "change of cell morphology", "setting": "[1]", "value": "changed the morphology of the cells"}, {"measurement": "inhibition of cell growth", "setting": "[1]", "value": "inhibition of the cell growth of human breast cancer MDA-MB-231 cells was observed; also recorded: inhibited the growth"}, {"measurement": "CTPS protein level", "setting": "[4]; 72 hrs (FIG. 7(a))", "value": "decreased in a dose-dependent manner"}, {"measurement": "Hsp90 protein level", "setting": "[4]; 72 hrs (FIG. 7(a))", "value": "decreased in a dose-dependent manner"}, {"measurement": "induction (increase) of acetylated Hsp90 protein", "setting": "[4]; 72 hrs (FIG. 7(a))", "value": "detected in a dose-dependent manner; also recorded: observed in a dose-dependent manner"}, {"measurement": "induction (increase) of gelsolin protein", "setting": "[4]; 72 hrs (FIG. 7(a))", "value": "detected in a dose-dependent manner; also recorded: observed in a dose-dependent manner"}, {"measurement": "expression of acetylated Histone H3", "setting": "[4]; 72 hrs (FIG. 7(b))", "value": "significantly increased in a dose-dependent manner; also recorded: induced in a dose-dependent manner"}, {"measurement": "expression of acetylated Histone H4", "setting": "[4]; 72 hrs (FIG. 7(b))", "value": "significantly increased in a dose-dependent manner; also recorded: induced in a dose-dependent manner"}, {"measurement": "expression of acetylated tubulin", "setting": "[4]; 72 hrs (FIG. 7(b))", "value": "significantly increased in a dose-dependent manner; also recorded: induced in a dose-dependent manner"}, {"measurement": "expression of p21", "setting": "[4]; 72 hrs (FIG. 7(b))", "value": "significantly increased in a dose-dependent manner; also recorded: induced in a dose-dependent manner"}, {"measurement": "cell growth inhibition", "setting": "[5]", "value": "Cell growth inhibition was observed"}, {"measurement": "inhibition of cell growth", "setting": "Rat C6 glioma cells; 24 hrs, NBM-C-BA-OS01 5 μg/mL, others 2.5, 5.0 μg/mL (FIG. 5(a))", "value": "inhibited the cell growth"}, {"measurement": "inhibition of cell growth, similar to dose-dependent A549 result", "setting": "Rat C6 glioma cells; various concentrations, 24 hrs (FIG. 5(c))", "value": "the results were similar"}, {"measurement": "cell growth inhibition", "setting": "[6]", "value": "induced A549 cells growth inhibition in a dose-dependent manner; also recorded: induced A549 cell growth inhibition in dose-dependent amounts"}]}, {"smiles": "CC(C)=CCOc1c(OCc2ccc(Cl)cc2)c(/C=C\\C(=O)NO)cc2ccoc12", "note": "[NBM-I-BCX-OS01]", "values": [{"measurement": "inhibition of MDA-MB-231 cells", "setting": "[1]", "value": "inhibition of human breast cancer MDA-MB-231 cells"}, {"measurement": "inhibition of cell growth", "setting": "Human glioma Hs683 cells", "value": "inhibition of cell growth"}, {"measurement": "cell cycle arrest phase", "setting": "[2]", "value": "arrested the human lung cancer A549 cells on the S and G2/M phases"}, {"measurement": "cell cycle arrest phase", "setting": "[3]", "value": "arrested the human breast cancer MCF-7 cells on the S and G2/M phases"}]}, {"smiles": "COc1ccc(/C=C/C(=O)NO)c(OCc2ccc(Br)cc2)c1CC=C(C)C", "note": "[NBM-T-BBX-OS01, (E)-2-(4-Bromobenzoxy)-3-prenyl-4-methoxy-N-hydroxy cinamide]", "values": [{"measurement": "inhibition of MDA-MB-231 cells", "setting": "[1]", "value": "inhibition of human breast cancer MDA-MB-231 cells"}, {"measurement": "inhibition of cell growth", "setting": "Human glioma Hs683 cells", "value": "inhibition of cell growth"}, {"measurement": "cell cycle arrest phase", "setting": "[2]", "value": "arrested the human lung cancer A549 cells on the S and G2/M phases"}, {"measurement": "cell cycle arrest phase", "setting": "[3]", "value": "arrested the human breast cancer MCF-7 cells on the S and G2/M phases"}]}, {"smiles": "COc1ccc(/C=C/C(=O)NO)c(OCc2ccc(Cl)cc2)c1CC=C(C)C", "note": "[NBM-T-BCX-OS01, (E)-2-(4-Chlorobenzoxy)-3-prenyl-4-methoxy-N-hydroxy cinamide]", "values": [{"measurement": "inhibition of MDA-MB-231 cells", "setting": "[1]", "value": "inhibition of human breast cancer MDA-MB-231 cells"}, {"measurement": "inhibition of cell growth", "setting": "Human glioma Hs683 cells", "value": "inhibition of cell growth"}, {"measurement": "cell cycle arrest phase", "setting": "[3]", "value": "arrested the human breast cancer MCF-7 cells on the S and G2/M phases"}]}, {"smiles": "COc1ccc(COc2c(/C=C/C(=O)NO)ccc(OC)c2CC=C(C)C)cc1", "note": "[NBM-T-BMX-OS01, (E)-2-(4-Methoxyhenzoxy)-3-prenyl-4-methoxy-N-hydroxy cinamide]", "values": [{"measurement": "inhibition of MDA-MB-231 cells", "setting": "[1]", "value": "inhibition of human breast cancer MDA-MB-231 cells"}, {"measurement": "inhibition of cell growth", "setting": "Human glioma Hs683 cells", "value": "inhibition of cell growth"}, {"measurement": "cell cycle arrest phase", "setting": "[2]", "value": "arrested the human lung cancer A549 cells on the S and G2/M phases"}, {"measurement": "cell cycle arrest phase", "setting": "[3]", "value": "arrested the human breast cancer MCF-7 cells on the S and G2/M phases"}]}]}
